Results taken from ChEMBL document CHEMBL1139649, “Hetaryl imidazoles: a novel dual inhibitors of VEGF receptors I and II” (Bioorg Med Chem Lett, 2006).

Assays:
[1] = molecular target: Receptor-type tyrosine-protein kinase FLT3 (Homo sapiens) (UniProt P36888); assay: Inhibition of Flt3 at 10 uM by HTRF method; design: scale not given: the % may be the effect or the level left
[2] = molecular target: Epidermal growth factor receptor (Homo sapiens) (UniProt P00533); assay: […] against ErbB1 at 10 uM by HTRF method
Epidermal growth factor receptor (Homo sapiens), sequence (P00533 whole entry): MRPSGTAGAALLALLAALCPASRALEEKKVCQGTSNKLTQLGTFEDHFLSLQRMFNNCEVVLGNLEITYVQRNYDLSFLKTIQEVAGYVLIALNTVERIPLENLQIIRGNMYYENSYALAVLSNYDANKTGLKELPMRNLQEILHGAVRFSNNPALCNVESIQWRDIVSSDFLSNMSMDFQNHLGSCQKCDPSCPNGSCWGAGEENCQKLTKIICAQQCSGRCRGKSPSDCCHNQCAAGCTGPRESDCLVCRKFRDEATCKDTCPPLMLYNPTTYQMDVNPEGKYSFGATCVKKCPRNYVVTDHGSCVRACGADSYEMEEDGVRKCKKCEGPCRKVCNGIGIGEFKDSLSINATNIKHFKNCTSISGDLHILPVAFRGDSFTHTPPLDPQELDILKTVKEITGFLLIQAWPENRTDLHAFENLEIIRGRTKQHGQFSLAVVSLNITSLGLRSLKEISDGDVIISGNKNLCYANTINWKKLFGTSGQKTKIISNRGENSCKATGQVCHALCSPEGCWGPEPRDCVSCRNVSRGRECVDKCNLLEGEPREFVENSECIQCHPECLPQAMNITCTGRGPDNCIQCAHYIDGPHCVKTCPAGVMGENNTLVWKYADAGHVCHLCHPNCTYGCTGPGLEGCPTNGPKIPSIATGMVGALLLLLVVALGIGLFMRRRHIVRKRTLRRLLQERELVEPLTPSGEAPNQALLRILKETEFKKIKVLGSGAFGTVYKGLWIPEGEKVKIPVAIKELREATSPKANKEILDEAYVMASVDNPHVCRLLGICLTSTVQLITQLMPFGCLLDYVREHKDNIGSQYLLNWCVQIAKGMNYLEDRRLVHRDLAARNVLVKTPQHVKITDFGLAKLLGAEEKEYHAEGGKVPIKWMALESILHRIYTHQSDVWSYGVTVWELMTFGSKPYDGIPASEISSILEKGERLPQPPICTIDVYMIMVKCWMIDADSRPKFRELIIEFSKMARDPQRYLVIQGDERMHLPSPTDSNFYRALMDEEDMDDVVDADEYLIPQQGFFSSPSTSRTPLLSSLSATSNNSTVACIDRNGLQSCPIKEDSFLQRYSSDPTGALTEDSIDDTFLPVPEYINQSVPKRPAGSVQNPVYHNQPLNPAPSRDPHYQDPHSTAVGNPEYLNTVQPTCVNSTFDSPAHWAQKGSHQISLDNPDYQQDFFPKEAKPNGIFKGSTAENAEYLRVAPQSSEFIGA

[3] = molecular target: Cyclin-dependent kinase 5 (Homo sapiens) (UniProt Q00535); assay: […] against Cdk5 at 10 uM by HTRF method
Cyclin-dependent kinase 5 (Homo sapiens), sequence (Q00535 whole entry, looked up): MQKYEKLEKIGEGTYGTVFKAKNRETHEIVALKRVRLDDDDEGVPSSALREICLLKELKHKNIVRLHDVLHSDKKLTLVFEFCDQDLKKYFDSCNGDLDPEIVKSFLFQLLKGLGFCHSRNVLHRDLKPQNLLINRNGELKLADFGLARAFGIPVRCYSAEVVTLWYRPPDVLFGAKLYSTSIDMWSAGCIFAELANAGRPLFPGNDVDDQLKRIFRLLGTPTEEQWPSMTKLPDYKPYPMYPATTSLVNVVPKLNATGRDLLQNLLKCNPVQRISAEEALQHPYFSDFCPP

[4] = molecular target: T1, Vascular endothelial growth factor receptor 2 (Homo sapiens, UniProt P35968); assay: Inhibition of VEGFR2 in 293 adenovirus transfected kidney cells by cell-based ELISA assay
[5] = molecular target: Cyclin-dependent kinase 2 (Homo sapiens) (UniProt P24941); assay: […] against Cdk2 at 10 uM by HTRF method
[6] = molecular target: Fibroblast growth factor receptor 1 (Homo sapiens) (UniProt P11362); assay: Percent inhibition against FGFR1 at 10 uM by HTRF method; design: scale not given: the % may be the effect or the level left
[7] = molecular target: Hepatocyte growth factor receptor (Homo sapiens) (UniProt P08581); assay: Percent inhibition against c-Met at 10 uM by HTRF method; design: scale not given: the % may be the effect or the level left
[8] = molecular target: Glycogen synthase kinase-3 beta (Homo sapiens) (UniProt P49841); assay: Inhibition against GSK3-beta at 10 uM by HTRF method; design: scale not given: the % may be the effect or the level left
Glycogen synthase kinase-3 beta (Homo sapiens), sequence (P49841 whole entry, looked up): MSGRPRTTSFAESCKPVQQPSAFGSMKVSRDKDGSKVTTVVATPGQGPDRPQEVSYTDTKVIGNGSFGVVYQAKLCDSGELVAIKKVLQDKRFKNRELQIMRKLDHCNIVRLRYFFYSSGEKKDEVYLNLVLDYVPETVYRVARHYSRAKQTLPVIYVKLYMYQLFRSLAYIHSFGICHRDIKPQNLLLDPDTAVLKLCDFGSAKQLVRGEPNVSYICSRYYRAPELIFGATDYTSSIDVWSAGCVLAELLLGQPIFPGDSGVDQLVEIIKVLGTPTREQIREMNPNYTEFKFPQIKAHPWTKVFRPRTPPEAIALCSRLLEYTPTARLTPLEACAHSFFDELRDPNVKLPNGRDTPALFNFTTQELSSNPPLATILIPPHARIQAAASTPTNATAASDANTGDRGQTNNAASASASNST

[9] = molecular target: Vascular endothelial growth factor receptor 1 (Homo sapiens, UniProt P17948); assay: Inhibition of VEGFR1 by enzymatic assay
[10] = molecular target: Insulin-like growth factor 1 receptor (Homo sapiens) (UniProt P08069); assay: […] against IGF1R at 10 uM by HTRF method
Insulin-like growth factor 1 receptor (Homo sapiens), sequence (P08069 31-736 limits assumed): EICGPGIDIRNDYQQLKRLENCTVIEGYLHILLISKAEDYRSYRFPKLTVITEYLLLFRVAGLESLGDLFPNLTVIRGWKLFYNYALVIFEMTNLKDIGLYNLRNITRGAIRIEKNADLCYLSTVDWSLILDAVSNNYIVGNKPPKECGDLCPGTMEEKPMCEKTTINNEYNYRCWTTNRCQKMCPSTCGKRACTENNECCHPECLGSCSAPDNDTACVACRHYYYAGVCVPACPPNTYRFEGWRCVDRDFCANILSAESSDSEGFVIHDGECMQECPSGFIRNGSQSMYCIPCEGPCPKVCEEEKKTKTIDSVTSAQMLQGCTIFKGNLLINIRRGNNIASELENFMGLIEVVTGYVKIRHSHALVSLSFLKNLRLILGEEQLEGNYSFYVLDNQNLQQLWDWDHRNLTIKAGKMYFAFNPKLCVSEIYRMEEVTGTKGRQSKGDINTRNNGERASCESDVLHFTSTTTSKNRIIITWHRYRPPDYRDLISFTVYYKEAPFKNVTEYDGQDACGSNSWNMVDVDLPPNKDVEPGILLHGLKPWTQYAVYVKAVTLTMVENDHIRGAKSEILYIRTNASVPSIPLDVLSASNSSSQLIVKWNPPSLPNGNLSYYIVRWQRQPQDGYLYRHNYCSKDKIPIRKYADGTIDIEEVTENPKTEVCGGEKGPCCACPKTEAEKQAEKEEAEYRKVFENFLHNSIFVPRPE
Insulin-like growth factor 1 receptor (Homo sapiens), sequence (P08069 741-1367 limits assumed): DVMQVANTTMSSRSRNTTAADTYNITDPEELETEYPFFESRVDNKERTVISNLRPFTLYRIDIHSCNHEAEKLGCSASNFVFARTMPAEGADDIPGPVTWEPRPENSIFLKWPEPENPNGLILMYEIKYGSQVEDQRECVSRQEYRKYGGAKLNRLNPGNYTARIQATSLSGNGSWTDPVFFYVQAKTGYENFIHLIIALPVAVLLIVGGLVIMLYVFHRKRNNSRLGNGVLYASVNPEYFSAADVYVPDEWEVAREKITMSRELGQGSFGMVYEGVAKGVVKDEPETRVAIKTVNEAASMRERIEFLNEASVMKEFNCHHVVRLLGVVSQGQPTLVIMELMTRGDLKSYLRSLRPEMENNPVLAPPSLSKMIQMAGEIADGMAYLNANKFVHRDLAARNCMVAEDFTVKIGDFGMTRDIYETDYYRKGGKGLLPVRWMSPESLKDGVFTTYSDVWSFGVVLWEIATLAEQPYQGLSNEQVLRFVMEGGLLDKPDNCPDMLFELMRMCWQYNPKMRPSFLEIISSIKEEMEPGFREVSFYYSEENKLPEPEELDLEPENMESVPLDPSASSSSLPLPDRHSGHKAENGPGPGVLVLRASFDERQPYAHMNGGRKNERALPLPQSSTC

[11] = molecular target: T2, Ephrin type-B receptor 4 (Homo sapiens) (UniProt P54760); assay: Percent inhibition against EphB4 at 10 uM by HTRF method; design: scale not given: the % may be the effect or the level left
T2 sequence (whole entry): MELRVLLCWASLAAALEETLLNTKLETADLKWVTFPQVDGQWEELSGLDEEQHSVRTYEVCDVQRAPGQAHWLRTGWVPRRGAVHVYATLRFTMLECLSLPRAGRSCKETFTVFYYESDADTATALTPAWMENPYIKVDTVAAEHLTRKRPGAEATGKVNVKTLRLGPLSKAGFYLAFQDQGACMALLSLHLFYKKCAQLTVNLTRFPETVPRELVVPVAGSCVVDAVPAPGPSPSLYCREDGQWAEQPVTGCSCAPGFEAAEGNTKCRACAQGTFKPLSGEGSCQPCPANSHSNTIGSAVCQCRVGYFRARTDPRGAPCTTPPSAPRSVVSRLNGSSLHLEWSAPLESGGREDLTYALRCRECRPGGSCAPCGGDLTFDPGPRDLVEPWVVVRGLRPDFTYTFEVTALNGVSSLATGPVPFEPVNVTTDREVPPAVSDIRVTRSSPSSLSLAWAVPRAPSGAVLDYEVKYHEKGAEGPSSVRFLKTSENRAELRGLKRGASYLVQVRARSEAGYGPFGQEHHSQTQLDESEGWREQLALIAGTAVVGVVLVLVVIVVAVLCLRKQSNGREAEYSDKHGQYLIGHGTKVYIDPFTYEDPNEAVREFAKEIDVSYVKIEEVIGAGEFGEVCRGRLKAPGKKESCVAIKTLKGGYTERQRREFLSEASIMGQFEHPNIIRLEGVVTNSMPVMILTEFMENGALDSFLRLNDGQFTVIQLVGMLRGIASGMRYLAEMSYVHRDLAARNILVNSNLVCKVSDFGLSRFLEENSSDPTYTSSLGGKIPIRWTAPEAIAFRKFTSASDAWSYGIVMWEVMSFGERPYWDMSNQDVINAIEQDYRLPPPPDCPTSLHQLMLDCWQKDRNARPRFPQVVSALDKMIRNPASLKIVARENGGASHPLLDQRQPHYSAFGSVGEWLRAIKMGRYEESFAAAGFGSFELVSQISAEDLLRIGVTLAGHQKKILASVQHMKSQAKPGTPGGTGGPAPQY

[12] = molecular target: cAMP-dependent protein kinase (PKA) (Homo sapiens) (UniProt P22694+P17612+P22612); assay: Inhibition against PKA at 10 uM by HTRF method; format: protein assay; design: scale not given: the % may be the effect or the level left
[13] = molecular target: Receptor tyrosine-protein kinase erbB-2 (Homo sapiens) (UniProt P04626); assay: […] against ErbB2 at 10 uM by HTRF method
Receptor tyrosine-protein kinase erbB-2 (Homo sapiens), sequence (P04626 whole entry, the tested form may be a part): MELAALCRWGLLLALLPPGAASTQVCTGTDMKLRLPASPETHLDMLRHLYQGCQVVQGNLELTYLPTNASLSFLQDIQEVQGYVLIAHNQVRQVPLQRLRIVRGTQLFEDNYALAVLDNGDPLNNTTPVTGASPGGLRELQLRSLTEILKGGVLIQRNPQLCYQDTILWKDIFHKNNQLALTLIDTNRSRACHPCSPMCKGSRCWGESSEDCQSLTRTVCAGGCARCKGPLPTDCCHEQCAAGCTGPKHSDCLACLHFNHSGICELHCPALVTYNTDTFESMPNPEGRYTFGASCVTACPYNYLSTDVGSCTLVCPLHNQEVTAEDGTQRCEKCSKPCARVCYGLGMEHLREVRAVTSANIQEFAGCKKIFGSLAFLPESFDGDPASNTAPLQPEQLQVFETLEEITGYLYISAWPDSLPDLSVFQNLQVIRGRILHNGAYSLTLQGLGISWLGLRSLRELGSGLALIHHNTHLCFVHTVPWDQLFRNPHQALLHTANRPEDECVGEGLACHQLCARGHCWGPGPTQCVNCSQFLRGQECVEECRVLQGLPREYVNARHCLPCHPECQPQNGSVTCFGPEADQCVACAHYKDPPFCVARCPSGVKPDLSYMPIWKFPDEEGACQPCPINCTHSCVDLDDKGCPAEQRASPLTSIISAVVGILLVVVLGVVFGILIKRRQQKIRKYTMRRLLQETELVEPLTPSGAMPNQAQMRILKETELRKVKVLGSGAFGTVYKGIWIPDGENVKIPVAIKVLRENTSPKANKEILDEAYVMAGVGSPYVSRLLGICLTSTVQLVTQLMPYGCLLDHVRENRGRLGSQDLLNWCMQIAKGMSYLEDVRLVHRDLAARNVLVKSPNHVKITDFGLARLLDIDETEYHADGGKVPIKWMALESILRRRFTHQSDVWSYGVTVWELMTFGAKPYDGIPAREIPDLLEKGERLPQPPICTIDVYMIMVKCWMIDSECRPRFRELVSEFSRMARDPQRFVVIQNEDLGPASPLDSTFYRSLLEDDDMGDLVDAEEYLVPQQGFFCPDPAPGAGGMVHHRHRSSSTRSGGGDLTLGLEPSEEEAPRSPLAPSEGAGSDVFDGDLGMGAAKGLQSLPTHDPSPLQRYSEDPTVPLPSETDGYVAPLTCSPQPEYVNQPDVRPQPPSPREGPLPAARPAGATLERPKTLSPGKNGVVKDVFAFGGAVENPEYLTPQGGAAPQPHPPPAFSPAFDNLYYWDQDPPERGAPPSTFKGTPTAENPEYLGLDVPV

[14] = molecular target: Bcr/Abl fusion protein (Homo sapiens) (UniProt P00519+P11274); assay: Inhibition of bcr-Abl at 10 uM by HTRF method; format: protein assay; design: scale not given: the % may be the effect or the level left
[15] = molecular target: RAC-alpha serine/threonine-protein kinase (Homo sapiens) (UniProt P31749); assay: […] against PKB/Akt at 10 uM by HTRF method
RAC-alpha serine/threonine-protein kinase (Homo sapiens), sequence (P31749 whole entry): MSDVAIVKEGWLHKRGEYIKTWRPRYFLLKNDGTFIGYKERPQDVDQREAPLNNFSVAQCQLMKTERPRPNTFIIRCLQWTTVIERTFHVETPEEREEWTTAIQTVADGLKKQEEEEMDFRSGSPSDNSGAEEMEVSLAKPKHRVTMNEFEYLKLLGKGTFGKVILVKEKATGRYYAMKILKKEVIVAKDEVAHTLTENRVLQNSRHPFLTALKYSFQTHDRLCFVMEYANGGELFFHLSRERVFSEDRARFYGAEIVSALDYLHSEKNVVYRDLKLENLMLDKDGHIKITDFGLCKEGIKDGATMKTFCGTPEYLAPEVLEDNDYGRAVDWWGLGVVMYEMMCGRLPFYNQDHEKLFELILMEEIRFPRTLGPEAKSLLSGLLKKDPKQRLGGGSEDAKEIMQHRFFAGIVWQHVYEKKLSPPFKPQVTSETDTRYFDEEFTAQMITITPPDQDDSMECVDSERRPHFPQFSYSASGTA

[16] = molecular target: T1, Vascular endothelial growth factor receptor 2; assay: Inhibition of VEGFR2 by enzymatic assay

Structure (SMILES): Cn1cnc(NCc2ccncc2)c1-c1nnc(Nc2ccc(Cl)c(C(F)(F)F)c2)o1
- Activity [1]: < 30%
- Percent inhibition [2]: < 30%
- Activity [3]: < 30%
- IC50 [4]: 100 nM
- Percent inhibition [5]: < 30%
- Activity [6]: < 30%
- Activity [7]: < 30%
- Activity [8]: < 30%
- IC50 [9]: 510 nM
- Activity [10]: < 30%
- Activity [11]: < 30%
- Activity [12]: < 30%
- Activity [13]: < 30%
- Activity [14]: < 30%
- Activity [15]: < 30%
- IC50 [16]: 43 nM

Structure (SMILES): Cc1cccc(Nc2nnc(-c3c(NCc4ccncc4)ncn3C)o2)c1
- Activity [1]: < 30%
- Percent inhibition [2]: < 30%
- Activity [3]: < 30%
- Percent inhibition [5]: < 30%
- Activity [6]: < 30%
- Activity [7]: < 30%
- Activity [8]: < 30%
- IC50 [9]: 1260 nM
- Activity [10]: < 30%
- Activity [11]: < 30%
- Activity [12]: < 30%
- Activity [13]: < 30%
- Activity [14]: < 30%
- Activity [15]: < 30%
- IC50 [16]: 710 nM

Structure (SMILES): Cc1ccccc1Nc1nnc(-c2c(NCc3ccncc3)ncn2C)o1
- Activity [1]: < 30%
- Percent inhibition [2]: < 30%
- Activity [3]: < 30%
- Percent inhibition [5]: < 30%
- Activity [6]: < 30%
- Activity [7]: < 30%
- Activity [8]: < 30%
- IC50 [9]: > 10000 nM
- Activity [10]: < 30%
- Activity [11]: < 30%
- Activity [12]: < 30%
- Activity [13]: < 30%
- Activity [14]: < 30%
- Activity [15]: < 30%
- IC50 [16]: > 10000 nM

Structure (SMILES): Cn1cnc(NCc2ccncc2)c1-c1nnc(Nc2ccc(Br)cc2)o1
- Activity [1]: < 30%
- Percent inhibition [2]: < 30%
- Activity [3]: < 30%
- Percent inhibition [5]: < 30%
- Activity [6]: < 30%
- Activity [7]: < 30%
- Activity [8]: < 30%
- IC50 [9]: 1470 nM
- Activity [10]: < 30%
- Activity [11]: < 30%
- Activity [12]: < 30%
- Activity [13]: < 30%
- Activity [14]: < 30%
- Activity [15]: < 30%
- IC50 [16]: 730 nM

Structure (SMILES): Cn1cnc(NCc2ccncc2)c1-c1nnc(Nc2ccc(Oc3ccccc3)cc2)o1
- Activity [1]: < 30%
- Percent inhibition [2]: < 30%
- Activity [3]: < 30%
- Percent inhibition [5]: < 30%
- Activity [6]: < 30%
- Activity [7]: < 30%
- Activity [8]: < 30%
- IC50 [9]: > 10000 nM
- Activity [10]: < 30%
- Activity [11]: < 30%
- Activity [12]: < 30%
- Activity [13]: < 30%
- Activity [14]: < 30%
- Activity [15]: < 30%
- IC50 [16]: > 10000 nM

Structure (SMILES): Cn1cnc(NCc2ccncc2)c1-c1nnc(Nc2ccc(Cc3ccccc3)cc2)o1
- Activity [1]: < 30%
- Percent inhibition [2]: < 30%
- Activity [3]: < 30%
- Percent inhibition [5]: < 30%
- Activity [6]: < 30%
- Activity [7]: < 30%
- Activity [8]: < 30%
- IC50 [9]: > 10000 nM
- Activity [10]: < 30%
- Activity [11]: < 30%
- Activity [12]: < 30%
- Activity [13]: < 30%
- Activity [14]: < 30%
- Activity [15]: < 30%
- IC50 [16]: > 10000 nM

Structure (SMILES): Cn1cnc(NCc2ccncc2)c1-c1nnc(Nc2ccc(-c3ccccc3)cc2)o1
- Activity [1]: < 30%
- Percent inhibition [2]: < 30%
- Activity [3]: < 30%
- Percent inhibition [5]: < 30%
- Activity [6]: < 30%
- Activity [7]: < 30%
- Activity [8]: < 30%
- IC50 [9]: > 10000 nM
- Activity [10]: < 30%
- Activity [11]: < 30%
- Activity [12]: < 30%
- Activity [13]: < 30%
- Activity [14]: < 30%
- Activity [15]: < 30%
- IC50 [16]: 3220 nM

Structure (SMILES): COc1ccccc1Nc1nnc(-c2c(NCc3ccncc3)ncn2C)o1
- Activity [1]: < 30%
- Percent inhibition [2]: < 30%
- Activity [3]: < 30%
- Percent inhibition [5]: < 30%
- Activity [6]: < 30%
- Activity [7]: < 30%
- Activity [8]: < 30%
- Activity [10]: < 30%
- Activity [11]: < 30%
- Activity [12]: < 30%
- Activity [13]: < 30%
- Activity [14]: < 30%
- Activity [15]: < 30%
